Measurements taken from US9822114B2, “Tricyclic oxazolidinone antibiotic compounds” (Idorsia Pharmaceuticals Ltd, priority 2008, dated 2017).

Test system: M. catarrhalis A894
Experiment: Minimal inhibitory concentration (MIC), microdilution method in cation-adjusted Mueller-Hinton Broth (CLSI M7-A7)
Format: cell-based
Details: strain A894; for MIC: Moraxella catarrhalis
Description: Minimal inhibitory concentrations (MICs; mg/1) were determined in cation-adjusted Mueller-Hinton Broth by a microdilution method following the description given in “Methods for Dilution Antimicrobial Susceptibility Tests for Bacteria that Grow Aerobically”, Approved standard, 7th ed., Clinical and Laboratory Standards Institute (CLSI) Document M7-A7, Wayne, Pa., USA, 2006.

Compound	MIC for M. catarrhalis A894	MIC
(1R,2S)-2-methyl-1-{3-[(R)-2-oxo-3-(3-oxo-3,4-dihydro-2H-benzo[1,4]thiazin-6-yl)-oxazolidin-5-yl]-propylamino}-1,2-dihydro-pyrrolo[3,2,1-ij]quinolin-4-one and (1S,2R)-2-methyl-1-{3-[(R)-2-oxo-3-(3-oxo-3,4-dihydro-2H-benzo[1,4]thiazin-6-yl)-oxazolidin-5-yl]-propylamino}-1,2-dihydro-pyrrolo[3,2,1-ij]quinolin-4-one [Example 166]	≦0.031 mg/l	
O=C1COc2ccc(N3C[C@@H](CCCN[C@H]4Cn5c(=O)ccc6ncc(F)c4c65)OC3=O)cc2N1 [Example 140, (R)-3-fluoro-4-{3-[(R)-2-oxo-3-(3-oxo-3,4-dihydro-2H-benzo[1,4]oxazin-6-yl)-oxazolidin-5-yl]-propylamino}-4,5-dihydro-pyrrolo[3,2,1-de][1,5]naphthyridin-7-one]		≤ 0.031 µg/mL
O=C1CSc2ccc(N3C[C@@H](CNCC4Cn5c(=O)ccc6cccc4c65)OC3=O)cc2N1 (mixture of isomers) [Example 63, (RS)-1-({[(R)-2-oxo-3-(3-oxo-3,4-dihydro-2H-benzo[1,4]thiazin-6-yl)-oxazolidin-5-ylmethyl]-amino}-methyl)-1,2-dihydro-pyrrolo[3,2,1-ij]quinolin-4-one]		0.031 µg/mL
CCc1ccc2ccc(=O)n3c2c1C(NCCC[C@@H]1CN(c2ccc4c(c2)NC(=O)CS4)C(=O)O1)C3 (mixture of isomers) [Example 179, (RS)-9-ethyl-1-{3-[(R)-2-oxo-3-(3-oxo-3,4-dihydro-2H-benzo[1,4]thiazin-6-yl)-oxazolidin-5-yl]-propylamino}-1,2-dihydro-pyrrolo[3,2,1-ij]quinolin-4-one]		≤ 0.031 µg/mL
O=C1COc2ccc(N3C[C@H](CCNCC4Cn5c(=O)cnc6cccc4c65)OC3=O)cc2N1 (mixture of isomers) [Example 154, (RS)-6-({2-[(S)-2-oxo-3-(3-oxo-3,4-dihydro-2H-benzo[1,4]oxazin-6-yl)-oxazolidin-5-yl]-ethylamino}-methyl)-5,6-dihydro-pyrrolo[1,2,3-de]quinoxalin-3-one]		≤ 0.031 µg/mL
O=C1CSc2ccc(N3C[C@@H](CCNCC4Cn5c(=O)ccc6ccc(F)c4c65)OC3=O)cc2N1 (mixture of isomers) [Example 3, (1RS)-9-fluoro-1-({2-[(R)-2-oxo-3-(3-oxo-3,4-dihydro-2H-benzo[1,4]thiazin-6-yl)-oxazolidin-5-yl]-ethylamino}-methyl)-1,2-dihydro-pyrrolo[3,2,1-ij]quinolin-4-one]		≤ 0.031 µg/mL
O=C1CSc2ccc(N3C[C@@H](CCCNC4Cn5c(=O)ccc6cccc4c65)OC3=O)cc2N1 (mixture of isomers) [Example 35, (RS)-1-{3-[(R)-2-oxo-3-(3-oxo-3,4-dihydro-2H-benzo[1,4]thiazin-6-yl)-oxazolidin-5-yl]-propylamino}-1,2-dihydro-pyrrolo[3,2,1-ij]quinolin-4-one]		≤ 0.031 µg/mL
N#Cc1ccc2ccc(=O)n3c2c1C(NCCC[C@@H]1CN(c2ccc4c(c2)NC(=O)CS4)C(=O)O1)C3 (mixture of isomers) [Example 117, (RS)-4-oxo-1-{3-[(R)-2-oxo-3-(3-oxo-3,4-dihydro-2H-benzo[1,4]thiazin-6-yl)-oxazolidin-5-yl]-propylamino}-1,2-dihydro-4H-pyrrolo[3,2,1-ij]quinoline-9-carbonitrile]		≤ 0.031 µg/mL
O=C1CSc2ccc(N3C[C@H]([C@H](O)CCN[C@H]4Cn5c(=O)ccc6ccc(F)c4c65)OC3=O)cc2N1 (racemic) [Example 113, (1RS)-9-fluoro-1-{(3RS)-3-hydroxy-3-[(5RS)-2-oxo-3-(3-oxo-3,4-dihydro-2H-benzo[1,4]thiazin-6-yl)-oxazolidin-5-yl]-propylamino}-1,2-dihydro-pyrrolo[3,2,1-ij]quinolin-4-one]		≤ 0.031 µg/mL
